ChEMBL document CHEMBL4190350, “Synthesis, antimicrobial, antiquorum-sensing, antitumor and cytotoxic activities of new series of cyclopenta(hepta)[b]thiophene and fused cyclohepta[b]thiophene analogs” (Eur J Med Chem, 2017)
In brackets after ≈: the same amount, converted by molar mass.

What was measured:
[1] = tested on: Bacillus cereus; test: Antimicrobial activity against Bacillus cereus incubated for 24 hrs by serial dilution method; assay type: functional
[2] = tested on: Aspergillus fumigatus; test: Antimicrobial activity against Aspergillus fumigatus incubated for 48 hrs by disc diffusion assay; assay type: functional
[3] = tested on: Chromobacterium violaceum; test: Inhibition of quorum sensing system in Chromobacterium violaceum ATCC 12472 assessed as inhibition of violacein production at 5 mg/mL incubated for 48 hrs
[4] = tested on: Candida albicans; test: Antimicrobial activity against Candida albicans incubated for 48 hrs by disc diffusion assay; assay type: functional
[5] = tested on: Escherichia coli; test: Antimicrobial activity against Escherichia coli incubated for 24 hrs by disc diffusion assay; assay type: functional
[6] = tested on: MCF7; test: Antitumor activity against human MCF7 cells assessed as inhibition of cell viability incubated for 48 hrs by MTT assay; assay type: functional, cell-based; settings: MCF7, 48 h
[7] = tested on: HT-29; test: Antitumor activity against human HT-29 cells assessed as inhibition of cell viability incubated for 48 hrs by MTT assay; assay type: functional, cell-based; settings: HT-29, 48 h
[8] = tested on: Staphylococcus aureus; test: Antimicrobial activity against Staphylococcus aureus incubated for 24 hrs by disc diffusion assay; assay type: functional
[9] = tested on: HepG2; test: Antitumor activity against human HepG2 cells assessed as inhibition of cell viability incubated for 48 hrs by MTT assay; assay type: functional, cell-based; settings: HepG2, 48 h
[10] = tested on: Bacillus cereus; test: Antimicrobial activity against Bacillus cereus incubated for 24 hrs by disc diffusion assay; assay type: functional
[11] = Binding affinity to DNA (unknown origin) assessed as reduction in absorption maxima for methyl green/DNA complex incubated for 24 hrs by methyl green/DNA displacement assay
[12] = tested on: Aspergillus fumigatus; test: Antimicrobial activity against Aspergillus fumigatus incubated for 48 hrs by serial dilution method; assay type: functional
[13] = tested on: Mus musculus; test: Toxicity in mouse EAC cells implanted Swiss albino mouse assessed as WBC count at 0.5 mg for 9 days (reference value: 23.96 10^3/mm3); assay type: organism-based; settings: in vivo, 216 h
[14] = tested on: Mus musculus; test: Toxicity in mouse EAC cells implanted Swiss albino mouse assessed as RBC count at 0.5 mg for 9 days (reference value: 3.69 10^6/mm3); assay type: organism-based; settings: in vivo, 216 h
[15] = tested on: Mus musculus; test: Toxicity in mouse EAC cells implanted Swiss albino mouse assessed as hemoglobin level at 0.5 mg for 9 days (reference value: 8.15 g/dl); assay type: organism-based; settings: in vivo, 216 h
[16] = tested on: Ehrlich; test: Antitumor activity against mouse EAC cells implanted in Swiss albino mouse assessed as tumor volume at 0.5 mg for 9 days (reference value: 9.85 ml); assay type: functional
[17] = tested on: Ehrlich; test: Antitumor activity against mouse EAC cells implanted in Swiss albino mouse assessed as mean survival time at 0.5 mg for 9 days (reference value: 14.5 day); assay type: functional
[18] = tested on: Ehrlich; test: Antitumor activity against mouse EAC cells implanted in Swiss albino mouse assessed as increase in life span at 0.5 mg for 9 days relative to untreated control; assay type: functional
[19] = tested on: WI-38; test: Cytotoxicity in human WI38 cells assessed as inhibition of cell viability incubated for 48 hrs by MTT assay; assay type: cell-based; settings: WI-38, 48 h
[20] = tested on: Escherichia coli; test: Antimicrobial activity against Escherichia coli incubated for 24 hrs by serial dilution method; assay type: functional

Row | Compound | MIC [1] | diameter of the inhibition zone (DIZ) [2] | INH [3] | diameter of the inhibition zone (DIZ) [4] | diameter of the inhibition zone (DIZ) [5] | IC50 [6] | IC50 [7] | diameter of the inhibition zone (DIZ) [8] | IC50 [9] | diameter of the inhibition zone (DIZ) [10] | IC50 [11] | MIC [12] | Activity [13] | Activity [14] | Activity [15] | Activity [16] | MST [17] | ILS [18] | IC50 [19] | MIC [20]
1 | GENTAMICIN | 0.31 µM | – | – | – | – | – | – | – | – | – | – | – | – | – | – | – | – | – | – | –
2 | CCOC(=O)C(=NNc1sc2c(c1C(=O)OCC)CCCCC2)C(=O)OCC | – | <2 mm | < 2 mm | <2 mm | <2 mm | 54 µM | 86.8 µM | 5 mm | 76.3 µM | <2 mm | – | – | – | – | – | – | – | – | – | –
3 | COc1cccc2c1C(=O)c1c(O)c3c(c(O)c1C2=O)C[C@@](O)(C(=O)CO)C[C@@H]3O[C@H]1C[C@H](N)[C@H](O)[C@H](C)O1 [DOXORUBICIN] | – | – | – | – | – | – | – | – | – | – | 32.4 µM | – | – | – | – | – | – | – | – | –
4 | NNC(=O)c1c(NN=C2C(=O)NNC2=O)sc2c1CCC2 | – | 17 mm | 8 mm | <2 mm | <2 mm | – | – | <2 mm | – | <2 mm | – | 1010 µM (≈ 313 µg/mL) | – | – | – | – | – | – | – | –
5 | CCOC(=O)C(=NNc1sc2c(c1C(=O)OCC)CCC2)C(=O)OCC | – | <2 mm | < 2 mm | <2 mm | 7 mm | > 100 µM | > 100 µM | 9 mm | > 100 µM | 5 mm | – | – | – | – | – | – | – | – | – | –
6 | NNC(=O)c1c(NN=C2C(=O)NNC2=O)sc2c1CCCCC2 | – | <2 mm | 6 mm | <2 mm | <2 mm | 28.7 µM | 49.4 µM | <2 mm | 32.6 µM | <2 mm | – | – | – | – | – | – | – | – | – | –
7 | CC1=NNC(=O)/C1=N\Nc1sc2c(c1C(=O)NN)CCCCC2 | – | <2 mm | 5 mm | <2 mm | <2 mm | 41.2 µM | 66.7 µM | <2 mm | 81.7 µM | <2 mm | – | – | – | – | – | – | – | – | – | –
8 | CCOC(=O)c1c(N/N=C2\C(=O)NN=C2C)sc2c1CCCCC2 | – | <2 mm | < 2 mm | 10 mm | <2 mm | 52.4 µM | 88.1 µM | <2 mm | 42.3 µM | <2 mm | – | – | – | – | – | – | – | – | – | –
9 | CCOC(=O)c1c(-n2cnnn2)sc2c1CCCCC2 | – | <2 mm | < 2 mm | <2 mm | 6 mm | 62.5 µM | > 100 µM | 3 mm | > 100 µM | 9 mm | – | – | – | – | – | – | – | – | – | –
10 | CCOC(=O)c1c(NC(=O)CC#N)sc2c1CCCCC2 | – | <2 mm | 2 mm | 14 mm | <2 mm | 60.4 µM | > 100 µM | <2 mm | > 100 µM | <2 mm | – | – | – | – | – | – | – | – | – | –
11 | CCOC(=O)c1c(NC(=O)CC(C)=O)sc2c1CCCCC2 | – | <2 mm | < 2 mm | <2 mm | <2 mm | 62.8 µM | > 100 µM | <2 mm | 89.7 µM | <2 mm | – | – | – | – | – | – | – | – | – | –
12 | CCOC(=O)c1c(N/N=C2\C(=O)NN=C2C)sc2c1CCC2 | – | <2 mm | < 2 mm | 8 mm | <2 mm | 57.2 µM | 84.5 µM | 7 mm | 92.4 µM | <2 mm | – | – | – | – | – | – | – | – | – | –
13 | CCOC(=O)/C(C#N)=N/Nc1sc2c(c1C(=O)OCC)CCCCC2 | – | <2 mm | 4 mm | 5 mm | <2 mm | 70.9 µM | 92.8 µM | 7 mm | > 100 µM | 5 mm | – | – | – | – | – | – | – | – | – | –
14 | Nc1nc2sc3c(c2c(=O)n1N)CCCCC3 | 1250 µM (≈ 313 µg/mL) | <2 mm | < 2 mm | <2 mm | 11 mm | 35.8 µM | 51.6 µM | 5 mm | 82.7 µM | 17 mm | – | – | – | – | – | – | – | – | – | –
15 | O=c1[nH]cc(F)c(=O)[nH]1 [FLUOROURACIL] | – | – | – | – | – | 5.7 µM | 4.6 µM | – | 6.9 µM | – | – | – | 8.86 ×10³ /mm3 | 5.21 ×10⁶ /mm3 | 12.96 g/dL | 1.6 mL | 49 days | 237.9% | – | –
16 | CCOC(=O)c1c(N/N=C(\C(C)=O)C(=O)c2ccccc2)sc2c1CCCCC2 | – | 18 mm | 3 mm | 11 mm | <2 mm | 36.9 µM | 94.7 µM | <2 mm | 71.6 µM | <2 mm | – | 758 µM (≈ 313 µg/mL) | – | – | – | – | – | – | – | –
17 | CCOC(=O)/C(C#N)=N/Nc1sc2c(c1C(=O)OCC)CCC2 | – | <2 mm | 8 mm | <2 mm | 7 mm | 45.5 µM | 72.1 µM | 11 mm | 58.2 µM | 7 mm | – | – | – | – | – | – | – | – | – | –
18 | NNC(=O)c1c(N/N=C2/C(=O)NN=C2N)sc2c1CCCCC2 | – | <2 mm | 9 mm | <2 mm | <2 mm | 18.3 µM | 41.2 µM | <2 mm | 35.4 µM | <2 mm | – | – | – | – | – | – | – | – | – | –
19 | Oc1cc(O)c2c(c1)O[C@H](c1ccc(O)c(O)c1)[C@@H](O)C2 | – | – | 2 mm | – | – | – | – | – | – | – | – | – | – | – | – | – | – | – | – | –
20 | CC(=O)C1(C(=O)c2ccccc2)N=Nc2sc3c(c2C1=O)CCCCC3 (configuration not stated) | 853 µM (≈ 313 µg/mL) | <2 mm | 11 mm | <2 mm | <2 mm | 11.8 µM | 9.7 µM | 5 mm | 14.1 µM | 16 mm | 21.4 µM | – | 7.95 ×10³ /mm3 | 5.16 ×10⁶ /mm3 | 12.92 g/dL | 2.55 mL | 43.3 days | 198.62% | 63.3 µM | –
21 | CC(=O)c1c(O)c2c3c(sc2[nH]c1=O)CCCCC3 | – | 24 mm | 5 mm | 9 mm | 12 mm | 24.9 µM | 47.2 µM | 8 mm | 54.9 µM | 9 mm | 56.3 µM | 563 µM (≈ 156 µg/mL) | – | – | – | – | – | – | – | –
22 | CCOC(=O)C1(C(C)=O)N=Nc2sc3c(c2C1=O)CCCCC3 (configuration not stated) | – | <2 mm | 3 mm | 5 mm | 17 mm | 50.2 µM | 78.6 µM | <2 mm | 91.2 µM | 5 mm | – | – | – | – | – | – | – | – | – | 934 µM (≈ 312 µg/mL)
23 | N#Cc1c(O)c2c3c(sc2[nH]c1=O)CCCCC3 | – | 8 mm | < 2 mm | <2 mm | 3 mm | 19.1 µM | 27.3 µM | <2 mm | 22.7 µM | 3 mm | – | – | – | – | – | – | – | – | – | –
24 | CCOC(=O)c1c(N/N=C(\C(C)=O)C(=O)c2ccccc2)sc2c1CCC2 | – | 2 mm | 3 mm | <2 mm | 7 mm | 13.7 µM | 57.4 µM | 9 mm | 28.4 µM | 14 mm | 29.8 µM | – | 9.62 ×10³ /mm3 | 4.79 ×10⁶ /mm3 | 11.74 g/dL | 3.53 mL | 33.5 days | 130.95% | 67.8 µM | –
